# Assay results published in US5332733A, “Heterocyclically substituted piperazinoakylbenzoxazine and piperazinoalkylbenzothiazine compounds, processes for preparing them, and medicaments containing them” (Kali-Chemie Pharma GmbH, priority 1990, dated 1994).
# Like-named read-outs stand apart in the source and are kept apart here.
# Legend:
# [1] = tested on: histamine-induced anaphylactoid cutaneous reaction; assay: Inhibition of histamine-induced anaphylactoid cutaneous reaction in rats; assay type: in vivo, Sprague-Dawley rats; conditions: Rattus norvegicus, 1 h, 2 × 10^-5 mole/kg per os, one hour before ovalbumin challenge
# Method: (§1) 1. Determining Inhibition of Passive Cutaneous Anaphylaxis (PCA) and Histamine-Induced Anaphylactoid Cutaneous Reaction
# (§2) The inhibition of the passive cutaneous anaphylaxis and of the anaphylactoid cutaneous reaction induced by histamine was determined as follows:
# (§3) Sprague-Dawley rats having a body weight of 150-180 g were injected intradermally in one flank with 50 μl of a 1:75 dilution of the IgE-rich ovalbumin antiserum in physiological saline solution to passively sensitize them to ovalbumin.
# (§4) 24 hours after sensitization a solution of 8.25 mg/kg of ovalbumin and 26.4 mg/kg of a blue dye (Evans's Blue) was administered to the rats intravenously according to Martin et al. to trigger passive cutaneous anaphylaxis.
# To determine the histamine-induced anaphylactoid skin reaction, the animals are injected intradermally in the flank opposite to the antiserum administration with 50 μl of a physiological saline solution containing 0.8 mg/ml histamine directly before the intravenous injection of the solution containing the ovalbumin and the blue dye.
# (§5) On the day of the experiment the test substances were dissolved in distilled water which contained 1 vol. % dimethylformamide and 1 vol. % of Tween™ 20 (=polyoxyethylene (20) sorbitan monolaurate). One hour before administration of the ovalbumin challenge, each animal was orally administered 2×10^-5 mole/kg of test substance in 0.5 ml of solution. For comparison purposes a control group received only the solvent.
# (§6) The edematous anaphylactic (PCA) and anaphylactoid (histamine-induced) reactions caused by the stimulation of the intravenous ovalbumin injection, which manifested themselves by edema formation, swelling and exudation of blue dye, were evaluated 30 minutes after their initiation by the intravenous ovalbumin injection. This was done by visually determining the extent to which the blue dye emerged at the sites of edema formation. The percentage inhibition of anaphylactic and anaphylactoid reactions induced by the test substances in comparison with the reactions of the control animals not treated with any test substance was determined using comparison scales.
# (§7) The results obtained using compounds of formula I according to the foregoing test methods are shown in the following Table A. The example numbers given for the compounds of formula I relate to the subsequent preparative examples.
# [2] = tested on: PAF-induced aggregation of rabbit blood platelets; assay: Anti-PAF activity in vitro, PAF-induced platelet aggregation; assay type: cell-based, rabbit (New Zealand hybrids); conditions: Oryctolagus cuniculus, test substance 10^-5 mole/l, pH 7.4
# From the text: 4. Determination of Anti-PAF Activity In Vitro
# PAF (=Platelet Activating Factor) is a phospholipid mediator which has many effects. Activation of platelet aggregation induces protracted broncho-contraction and hyper-reactivity of the air paths.
# In this test the effect of the test substances on platelet aggregation induced by adding PAF to a suspension of platelets obtained from rabbit blood is investigated using the method described by Mikashima et al. (Jap. J. Pharmacol. 44 (1987) 387-391).
# A suspension of platelets obtained from rabbit blood containing 4×10^9 platelets/ml in a modified Tyrode buffer solution (=Tyrode solution with 1.3 mM/l CaCl2 and 2.5 g/l gelatine added) adjusted to pH 7.4 was used. Tyrode solution is an aqueous solution containing 136.9 mmoles NaCl, 2.68 mmoles KCl, 2.31 mmoles CaCl2, 1.0 mmole MgCl2, 11.9 mmoles NaHCO3, 1.45 mmoles NaH2 PO4 and 5.55 mmoles glucose per liter. The platelets were obtained from 10 ml blood samples from each of three rabbits (New Zealand hybrids, body weight 3-4 kg). For this the blood samples were treated with ethylenediamine tetraacetic acid and washed according to the method of Artley et al. (Brit. J. Hematol. 19 (1970), 7-17). A platelet-rich plasma was then initially separated by centrifuging (20 minutes at 400×g). The blood platelets were separated from the plasma by recentrifuging for 15 minutes at 1,400×g. The platelets remaining as sediment after centrifuging were resuspended in a Tyrode buffer solution (but without calcium). 0.4 mmole of lysine acetylsalicylate was then added, and after 15 minutes the platelets were sedimented again. The sediment was resuspended in the aforementioned modified Tyrode buffer solution, and the number of platelets in the resulting suspension was adjusted to the desired content.
# A 40×10^-9 molar PAF solution was used as a reagent. This solution was made from a 1.8×10^-3 molar stock solution in chloroform. For this purpose a 10 μl sample of the stock solution was evaporated to dryness and redissolved in 180 μl of the modified Tyrode solution to which 0.25% of lipid-free bovine serum albumin had been added. From this 10^-5 molar working solutions were then prepared and stored frozen. Samples of these solutions were appropriately diluted for the tests.
# To carry out the test 50 μl of the platelet suspension and 10 μl of a 40×10^-5 molar solution of the compound being investigated were added with stirring (1,000 rpm) to 330 μl of the modified Tyrode buffer solution in an aggregation tube provided with a small magnetic stirrer. This corresponds to a final test substance concentration of 10^-5 mole/l. After 90 seconds preincubation time, 10 μl of the PAF preparation were added. The aggregation occurring in the aggregation tubes was measured over 4-5 minutes with the aid of a computerized aggregometer.
# The aggregation which occurred in test tubes containing only platelet suspension was evaluated as 0%, whereas the aggregation which occurred in test tubes containing platelet suspension and PAF preparation was evaluated as 100%. The aggregation which still occurred during the inhibition of the PAF induced platelet aggregation due to the addition of the test substances was measured, and the resulting aggregation inhibition was calculated therefrom in %.
# [3] = tested on: passive cutaneous anaphylaxis (PCA); assay: Inhibition of passive cutaneous anaphylaxis (PCA) in rats; assay type: in vivo, Sprague-Dawley rats; conditions: Rattus norvegicus, 1 h, 2 × 10^-5 mole/kg per os, one hour before ovalbumin challenge
# Method: as §1
# The PCA reaction is carried out following the methods described by Goose et al. (J. N. Immunology 16 (1969), 749) and by Martin et al. (Arch. Pharmacol. 316 (1981), 186).
# The IgE-rich ovalbumin antiserum used in the test was obtained from immunized Brown-Norway rats. The were immunized with an intraperitoneal injection of a mixture of 100 μg of ovalbumin with a Bordetella pertussis suspension (Vaxicoq™, Manufactured by Institute Merieux, containing 5×10^9 organisms and 1.25 mg Al(OH)3). After 20 days the animals were re-immunized with a further intraperitoneal injection of a solution of 10 μg ovalbumin in 0.5 ml physiological saline solution. After a further four days the blood was removed from the animals and centrifuged. The resulting antiserum was stored at -20° C. until use.
# as §2, §3, §4, §5, §6, §7
# [4] = target: T1, histamine-(H1)-receptor (Cavia porcellus, UniProt P31389); assay: Histamine-(H1)-receptor antagonism in vitro, histamine-induced contractions of isolated ileum; assay type: cell-based, guinea pig (Dunkin Hartley); conditions: test substance 10^-6 mole/l, histamine 5 × 10^-6 mole/l
# T1 construct: Segments of the ileum 1.5 cm long from Dunkin Hartley guinea pigs; from tissue; host or cells: isolated ileum of Dunkin Hartley guinea pigs
# Method: 3. Investigation of Anti-Histamine-(H1) Effect Based on Histamine-(H1)-Receptor Antagonism In Vitro
# To investigate the histamine-(H1)-receptor antagonism of the test substances, the inhibiting effect of the substances on histamine-induced contractions of the smooth muscle was determined in vitro on the isolated organ. Isolated strips of organ from the ileum are suitable for this purpose. In an organ bath of physiological saline solution the smooth muscle strips react to the addition of histamine by contracting. […] The extent of regression of the contraction is an indication of the anti-histamine-(H1) activity of the compounds. The investigation was carried out analogously to the method originally described by Magnus (Pfluegers Arch. 102, 123 (1904)).
# Procedure for determining the smooth muscle contraction inhibiting effect on isolated guinea pig ileum induced by a 5×10^-6 molar histamine concentration
# Segments of the ileum 1.5 cm long from Dunkin Hartley guinea pigs having a body weight of 300 500 g were used for the test. Each strip was placed in an organ bath of 10 ml of physiological saline solution according to Krebs-Henseleit and attached to a conventional apparatus for isotonic measurement of changes in length of the ileum strips (automated Celaster measuring apparatus), so that the tissue was under 1 g of tension. The bath was kept at a pH of 7.4 and gassed with a mixture of 5% CO2 and 95% O2. After an equilibration phase, an isotonic contraction of the tissue was induced by adding histamine in a final concentration of 5×10^-6 mole/liter and washing it out again after a contact time of 30 seconds. Only tissues samples from which three reproducible contractions were obtained at 10 minute intervals were used in the subsequent test. The test substances were then added in a final concentration of 10^-6 mole/liter, and after 30 seconds contact time histamine was again added up to a concentration of 5×10^-6 mole/liter. The resulting contractions were measured over 30 seconds. The tissue was then washed several times over a period of 10 minutes. Histamine was then added again to stimulate a contraction. The resulting contractions were again measured over 30 seconds. The difference between the amplitude of the contraction obtained by histamine addition alone and the amplitude of the contraction obtained in the presence of the test substance was determined and expressed in terms of % inhibition.
# The inhibiting effects on the contractions induced by histamine 30 seconds after administration of the test substance and on the contractions induced by the addition of histamine 10 minutes later are listed in the table.
# [5] = tested on: mice; conditions: mouse, in vivo, 1440 min
# Method: 2. Determination of Minimum Toxic Dose
# Maximum doses of 300 mg/kg of the test substance were administered orally to male mice weighing 20-25 g. The animals were observed carefully for 3 hours for toxicity symptoms. In addition, all symptoms and deaths were recorded over a period of 24 hours after administration. Associated symptoms were also observed and recorded. If death or severe toxic symptoms were observed, additional mice were administered increasingly lower doses. The lowest dose which produced death or severe toxic symptoms is given in the following Table B as the minimum toxic dose.
# [6] = 0.5 min, after 30 seconds, read-out: % inhibition of histamine-induced ileum contractions after 30 seconds
# [7] = 10 min, after 10 minutes (after washing), read-out: % inhibition of histamine-induced ileum contractions after 10 minutes
# T1 sequence (P31389 whole entry): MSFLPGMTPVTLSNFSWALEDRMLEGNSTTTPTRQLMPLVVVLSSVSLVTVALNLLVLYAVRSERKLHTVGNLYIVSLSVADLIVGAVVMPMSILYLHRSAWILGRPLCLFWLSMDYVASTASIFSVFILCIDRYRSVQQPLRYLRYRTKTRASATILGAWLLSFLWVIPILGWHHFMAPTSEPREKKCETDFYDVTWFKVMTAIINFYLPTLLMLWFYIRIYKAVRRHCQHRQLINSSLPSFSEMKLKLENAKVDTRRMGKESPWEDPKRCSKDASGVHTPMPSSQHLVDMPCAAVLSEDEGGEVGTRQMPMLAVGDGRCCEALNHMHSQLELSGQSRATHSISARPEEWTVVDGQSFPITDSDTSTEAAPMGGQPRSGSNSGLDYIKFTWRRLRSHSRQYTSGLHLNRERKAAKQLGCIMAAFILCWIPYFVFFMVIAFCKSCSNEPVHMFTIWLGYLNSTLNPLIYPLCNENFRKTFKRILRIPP
Structure (SMILES),"inhibition at 1 µM [4, 6] [%]","inhibition at 1 µM [4, 7] [%]",inhibition in vivo at 20 µmol/kg [1] [%],inhibition at 10 µM [2] [%],inhibition in vivo at 20 µmol/kg [3] [%],Minimum toxic dose [5] [mg/kg]
COc1cccc(N2CCN(CCCCC3Sc4ccccc4NC3=O)CC2)n1 (centres unmarked) [Example 16],30,27,45,,50,300
Cc1ccc(N2CCN(CCCCC3Sc4ccccc4NC3=O)CC2)nc1 (centres unmarked) [Example 13],42,15,30,,55,100
O=C1Nc2ccccc2SC1CCCCN1CCN(c2ccccn2)CC1 (centres unmarked) [Example 17],,,35,,70,
"Cc1ccnc(N2CCN(CCCCC3Sc4ccccc4NC3=S)CC2)c1 (centres unmarked) [Example 2, 2-{4-[4-(4-methylpyridin-2-yl)-piperazin-1-yl]butyl}-2H-1,4-benzothiazine-3(4H) -thione]",51,60,,60,,> 300
O=C1Nc2ccccc2SC1CCCCN1CCN(c2ncccn2)CC1 (centres unmarked) [Example 12],,,50,,80,300
"Cc1ccnc(N2CCN(CCCCC3Sc4ccccc4N(C)C3=O)CC2)c1 (centres unmarked) [Example 3, 4-methyl-2-{4-[4-(4-methylpyridin-2-yl)-piperazin-1-yl]butyl}-2H-1,4-benzothiazine-3(4H)-one]",66,28,55,,80,

# More lines, main results first:
"inhibition at 1 µM [4, 6] [%]","inhibition at 1 µM [4, 7] [%]",Structure (SMILES),inhibition in vivo at 20 µmol/kg [1] [%],inhibition at 10 µM [2] [%],inhibition in vivo at 20 µmol/kg [3] [%],Minimum toxic dose [5] [mg/kg]
16,72,Cc1ccnc(N2CCN(CCCCC3Sc4cc(Cl)ccc4NC3=O)CC2)c1 (centres unmarked) [Example 27],35,35,60,
50,32,Cc1ccnc(N2CCN(CCCCC3Sc4cc(O)ccc4NC3=O)CC2)c1 (centres unmarked) [Example 25],15,,50,
70,83,Cc1ccnc(N2CCN(CCCCC3Oc4ccc(Cl)cc4NC3=O)CC2)c1 (centres unmarked) [Example 23],,,,
60,42,"COc1ccc2c(c1)SC(CCCCN1CCN(c3cc(C)ccn3)CC1)C(=O)N2 (centres unmarked) [Example 19, 7-methoxy-2-{4-[4-(4-methylpyridin-2-yl)-piperazin-1-yl]-butyl}-2H-1,4-benzothiazine-3(4H)-one]",60,,80,
50,89,Cc1ccnc(N2CCN(CCCCC3Sc4cc(C)c(C)cc4NC3=O)CC2)c1 (centres unmarked) [Example 21],55,37,78,
78,83,Cc1ccnc(N2CCN(CCCCC3Sc4cc(F)ccc4NC3=O)CC2)c1 (centres unmarked) [Example 18],53,76,80,
42,36,Cc1ccnc(N2CCN(CCCC3Sc4cc(C)ccc4NC3=O)CC2)c1 (centres unmarked) [Example 10],35,74,70,
38,45,CCCCN1C(=O)C(CCCCN2CCN(c3cc(C)ccn3)CC2)Sc2ccccc21 (centres unmarked) [Example 28],40,45,65,
70,86,Cc1ccnc(N2CCN(CCCCC3Oc4ccc(C)cc4NC3=O)CC2)c1 (centres unmarked) [Example 24],60,,80,
